Read-outs that look alike come from different tables or passages of the source.
Key:
Assay in all cases: Kinase selectivity, P33-radiolabeled assay
Assay type in all cases: biochemical
Conditions in all cases: 10 μM ATP
[1] = target: T1, AXL (Homo sapiens, UniProt P30530)
T1 construct: purchased Reaction Biology Corp
T1 sequence (P30530 26-894): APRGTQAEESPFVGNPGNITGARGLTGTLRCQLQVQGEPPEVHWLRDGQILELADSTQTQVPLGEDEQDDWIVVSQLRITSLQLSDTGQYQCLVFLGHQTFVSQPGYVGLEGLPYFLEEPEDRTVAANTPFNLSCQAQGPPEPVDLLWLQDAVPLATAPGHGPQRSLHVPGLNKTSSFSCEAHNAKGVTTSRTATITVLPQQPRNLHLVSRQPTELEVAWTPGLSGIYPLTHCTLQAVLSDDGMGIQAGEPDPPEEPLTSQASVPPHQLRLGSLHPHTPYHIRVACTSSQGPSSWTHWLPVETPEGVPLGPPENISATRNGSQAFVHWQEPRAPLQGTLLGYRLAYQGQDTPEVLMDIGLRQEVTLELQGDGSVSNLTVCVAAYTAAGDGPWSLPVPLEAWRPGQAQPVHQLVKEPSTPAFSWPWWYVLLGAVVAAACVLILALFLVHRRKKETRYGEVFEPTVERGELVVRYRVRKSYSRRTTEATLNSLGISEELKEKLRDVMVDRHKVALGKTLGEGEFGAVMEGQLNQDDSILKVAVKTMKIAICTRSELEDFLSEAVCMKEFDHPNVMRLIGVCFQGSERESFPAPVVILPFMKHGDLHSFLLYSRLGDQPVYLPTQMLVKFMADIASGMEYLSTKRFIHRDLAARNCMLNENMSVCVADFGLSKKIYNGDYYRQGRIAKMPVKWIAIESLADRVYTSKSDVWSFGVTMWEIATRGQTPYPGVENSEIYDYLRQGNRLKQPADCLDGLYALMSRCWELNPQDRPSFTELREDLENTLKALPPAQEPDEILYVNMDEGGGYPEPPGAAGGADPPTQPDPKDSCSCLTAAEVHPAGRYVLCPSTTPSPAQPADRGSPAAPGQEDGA
Method in brief: (§1)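 Reactions contained 10 μM ATP and 10 μM test compound, each run in duplicate. Kinase activity is expressed as a percentage of DMSO-treated controls.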

[2] = target: T2, CAMK2a (Homo sapiens, UniProt Q9UQM7)
T2 construct: purchased Reaction Biology Corp
Method in brief: as §1

[3] = target: T3, DAPK2 (Homo sapiens, UniProt Q9UIK4)
T3 construct: purchased Reaction Biology Corp
Method in brief: as §1

[4] = target: T4, EPHA5 (Homo sapiens, UniProt P54756)
T4 construct: purchased Reaction Biology Corp
Method in brief: as §1

[5] = target: T5, FAK/PTK2 (Homo sapiens, UniProt Q05397)
T5 construct: purchased Reaction Biology Corp
Method in brief: as §1

[6] = target: T6, FLT1/VEGFR1 (Homo sapiens, UniProt P17948)
T6 construct: purchased Reaction Biology Corp
Method in brief: as §1

[7] = target: T7, GRK5 (Homo sapiens, UniProt P34947)
T7 construct: purchased Reaction Biology Corp
Method in brief: as §1

[8] = target: T8, HPK1/MAP4K1 (Homo sapiens, UniProt Q92918)
T8 construct: purchased Reaction Biology Corp
Method in brief: as §1

[9] = target: T9, IR (Homo sapiens, UniProt P06213)
T9 construct: purchased Reaction Biology Corp
Method in brief: as §1

[10] = target: T10, NLK (Homo sapiens, UniProt Q9UBE8)
T10 construct: purchased Reaction Biology Corp
T10 sequence (Q9UBE8 1-527): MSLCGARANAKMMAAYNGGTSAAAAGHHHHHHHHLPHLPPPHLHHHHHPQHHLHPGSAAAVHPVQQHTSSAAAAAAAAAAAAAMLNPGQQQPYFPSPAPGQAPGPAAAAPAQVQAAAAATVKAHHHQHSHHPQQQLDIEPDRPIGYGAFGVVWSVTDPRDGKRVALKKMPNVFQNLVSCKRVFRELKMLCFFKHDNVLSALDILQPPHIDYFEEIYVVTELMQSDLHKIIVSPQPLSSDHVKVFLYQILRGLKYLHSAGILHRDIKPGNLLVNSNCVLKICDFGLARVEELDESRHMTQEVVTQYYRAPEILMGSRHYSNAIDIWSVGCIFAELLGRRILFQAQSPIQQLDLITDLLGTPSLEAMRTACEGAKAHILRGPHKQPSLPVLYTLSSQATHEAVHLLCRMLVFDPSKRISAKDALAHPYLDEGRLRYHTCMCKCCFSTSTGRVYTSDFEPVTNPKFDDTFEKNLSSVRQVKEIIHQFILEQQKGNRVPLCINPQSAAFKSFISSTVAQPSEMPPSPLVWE
Method in brief: as §1

[11] = target: T11, PHKg1 (Homo sapiens, UniProt Q16816)
T11 construct: purchased Reaction Biology Corp
Method in brief: as §1

[12] = target: T12, p70S6Kb/RPS6KB2 (Homo sapiens, UniProt Q9UBS0)
T12 construct: purchased Reaction Biology Corp
Method in brief: as §1

[13] = read-out: % Enzyme Activity (relative to DMSO controls) AVG
[14] = read-out: % Enzyme Activity (relative to DMSO controls) Data 1
[15] = read-out: % Enzyme Activity (relative to DMSO controls) Data 2

T12 sequence (Q9UBS0 whole entry): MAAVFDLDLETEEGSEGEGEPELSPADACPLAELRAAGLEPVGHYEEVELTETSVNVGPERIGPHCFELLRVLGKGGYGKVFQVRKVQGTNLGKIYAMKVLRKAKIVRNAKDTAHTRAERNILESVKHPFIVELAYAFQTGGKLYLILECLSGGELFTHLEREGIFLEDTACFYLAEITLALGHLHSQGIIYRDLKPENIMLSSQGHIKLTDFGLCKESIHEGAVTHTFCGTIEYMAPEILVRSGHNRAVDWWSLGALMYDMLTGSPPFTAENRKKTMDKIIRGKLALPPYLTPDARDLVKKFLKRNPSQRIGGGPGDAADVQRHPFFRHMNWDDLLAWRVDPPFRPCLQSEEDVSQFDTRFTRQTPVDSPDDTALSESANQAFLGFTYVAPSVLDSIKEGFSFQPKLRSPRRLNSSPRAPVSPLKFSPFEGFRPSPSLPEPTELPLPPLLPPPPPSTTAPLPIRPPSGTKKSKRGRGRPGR
T2 sequence (Q9UQM7 whole entry): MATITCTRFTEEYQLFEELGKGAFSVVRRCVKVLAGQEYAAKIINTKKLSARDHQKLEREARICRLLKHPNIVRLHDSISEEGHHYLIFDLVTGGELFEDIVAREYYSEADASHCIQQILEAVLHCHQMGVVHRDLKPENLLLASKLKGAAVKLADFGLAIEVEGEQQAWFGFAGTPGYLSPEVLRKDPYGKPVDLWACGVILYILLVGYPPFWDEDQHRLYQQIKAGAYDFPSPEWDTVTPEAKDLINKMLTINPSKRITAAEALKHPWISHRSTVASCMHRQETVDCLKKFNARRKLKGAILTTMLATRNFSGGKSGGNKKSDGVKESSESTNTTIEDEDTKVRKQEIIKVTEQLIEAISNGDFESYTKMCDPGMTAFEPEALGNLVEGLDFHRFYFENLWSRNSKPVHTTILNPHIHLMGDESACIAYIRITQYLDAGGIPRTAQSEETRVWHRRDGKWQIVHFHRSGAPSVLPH
T6 sequence (P17948 27-1338): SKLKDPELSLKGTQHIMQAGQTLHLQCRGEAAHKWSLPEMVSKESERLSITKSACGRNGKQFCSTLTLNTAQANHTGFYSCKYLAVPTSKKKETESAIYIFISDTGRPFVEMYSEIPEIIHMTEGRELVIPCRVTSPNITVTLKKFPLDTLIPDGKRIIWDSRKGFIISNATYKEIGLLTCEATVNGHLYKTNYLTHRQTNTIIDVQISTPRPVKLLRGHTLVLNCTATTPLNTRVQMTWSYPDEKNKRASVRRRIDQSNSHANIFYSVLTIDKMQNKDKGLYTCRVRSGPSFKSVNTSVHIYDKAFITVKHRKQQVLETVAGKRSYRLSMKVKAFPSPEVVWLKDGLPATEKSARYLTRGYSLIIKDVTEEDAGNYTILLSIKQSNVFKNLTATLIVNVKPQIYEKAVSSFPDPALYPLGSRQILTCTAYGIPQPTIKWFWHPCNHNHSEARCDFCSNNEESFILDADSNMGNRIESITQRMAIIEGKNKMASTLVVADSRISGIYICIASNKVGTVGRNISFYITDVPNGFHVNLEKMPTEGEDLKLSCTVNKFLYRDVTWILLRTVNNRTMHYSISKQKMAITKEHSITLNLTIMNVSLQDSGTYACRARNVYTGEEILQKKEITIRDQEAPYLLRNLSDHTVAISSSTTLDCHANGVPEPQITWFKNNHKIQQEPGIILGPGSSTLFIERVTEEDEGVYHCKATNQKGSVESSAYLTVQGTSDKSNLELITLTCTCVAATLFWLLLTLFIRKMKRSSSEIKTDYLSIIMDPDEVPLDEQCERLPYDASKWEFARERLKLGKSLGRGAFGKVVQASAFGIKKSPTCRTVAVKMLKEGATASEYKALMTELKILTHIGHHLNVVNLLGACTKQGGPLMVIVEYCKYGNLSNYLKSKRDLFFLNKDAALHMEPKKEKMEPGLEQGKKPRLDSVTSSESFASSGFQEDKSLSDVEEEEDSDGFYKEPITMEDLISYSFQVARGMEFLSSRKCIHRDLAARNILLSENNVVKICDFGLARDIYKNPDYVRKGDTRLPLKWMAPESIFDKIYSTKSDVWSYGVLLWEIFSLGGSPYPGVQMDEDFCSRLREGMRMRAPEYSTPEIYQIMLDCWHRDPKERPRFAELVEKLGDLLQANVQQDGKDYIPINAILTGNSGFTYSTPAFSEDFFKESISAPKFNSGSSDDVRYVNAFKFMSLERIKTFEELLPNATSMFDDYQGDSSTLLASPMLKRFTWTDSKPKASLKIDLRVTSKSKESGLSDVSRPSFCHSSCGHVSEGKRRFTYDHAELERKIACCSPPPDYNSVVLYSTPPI
T5 sequence (Q05397 whole entry): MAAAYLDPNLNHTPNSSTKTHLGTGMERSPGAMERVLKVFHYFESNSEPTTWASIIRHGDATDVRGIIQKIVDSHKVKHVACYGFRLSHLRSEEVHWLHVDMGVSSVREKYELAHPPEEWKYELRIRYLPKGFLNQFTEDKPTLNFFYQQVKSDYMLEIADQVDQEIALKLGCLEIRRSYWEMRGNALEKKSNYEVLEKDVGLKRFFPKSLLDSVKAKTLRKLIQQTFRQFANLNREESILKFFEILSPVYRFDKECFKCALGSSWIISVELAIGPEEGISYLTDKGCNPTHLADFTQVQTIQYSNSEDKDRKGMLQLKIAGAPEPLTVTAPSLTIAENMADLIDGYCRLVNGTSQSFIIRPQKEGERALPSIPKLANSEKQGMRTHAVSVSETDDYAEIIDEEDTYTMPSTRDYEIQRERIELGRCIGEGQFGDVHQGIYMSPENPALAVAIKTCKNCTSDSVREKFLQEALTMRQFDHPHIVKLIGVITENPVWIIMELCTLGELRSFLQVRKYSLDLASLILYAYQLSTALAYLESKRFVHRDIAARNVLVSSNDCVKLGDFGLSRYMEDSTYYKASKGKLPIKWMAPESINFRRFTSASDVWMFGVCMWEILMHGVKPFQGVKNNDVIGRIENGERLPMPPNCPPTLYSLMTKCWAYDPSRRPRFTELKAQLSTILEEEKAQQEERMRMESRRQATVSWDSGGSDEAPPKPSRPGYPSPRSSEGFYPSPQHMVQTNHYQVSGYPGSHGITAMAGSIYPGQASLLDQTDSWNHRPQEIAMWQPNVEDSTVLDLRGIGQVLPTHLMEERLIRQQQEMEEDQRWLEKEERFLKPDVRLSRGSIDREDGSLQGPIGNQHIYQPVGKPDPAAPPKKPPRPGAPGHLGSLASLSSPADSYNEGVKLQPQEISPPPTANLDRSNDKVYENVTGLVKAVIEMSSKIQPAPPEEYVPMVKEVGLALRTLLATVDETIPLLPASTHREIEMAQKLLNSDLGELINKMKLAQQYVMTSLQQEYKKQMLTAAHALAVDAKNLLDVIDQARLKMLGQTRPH
T11 sequence (Q16816 whole entry): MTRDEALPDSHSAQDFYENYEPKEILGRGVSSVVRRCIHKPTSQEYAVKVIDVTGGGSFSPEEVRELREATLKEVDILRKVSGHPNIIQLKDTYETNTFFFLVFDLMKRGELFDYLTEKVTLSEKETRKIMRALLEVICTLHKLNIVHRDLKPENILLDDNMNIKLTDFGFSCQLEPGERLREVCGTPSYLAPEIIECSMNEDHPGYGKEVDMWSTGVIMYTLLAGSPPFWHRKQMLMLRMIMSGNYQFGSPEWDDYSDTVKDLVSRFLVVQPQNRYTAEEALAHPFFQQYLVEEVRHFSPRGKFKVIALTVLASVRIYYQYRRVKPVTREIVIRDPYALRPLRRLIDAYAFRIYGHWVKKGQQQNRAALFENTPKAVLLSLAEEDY
T9 sequence (P06213 28-1382): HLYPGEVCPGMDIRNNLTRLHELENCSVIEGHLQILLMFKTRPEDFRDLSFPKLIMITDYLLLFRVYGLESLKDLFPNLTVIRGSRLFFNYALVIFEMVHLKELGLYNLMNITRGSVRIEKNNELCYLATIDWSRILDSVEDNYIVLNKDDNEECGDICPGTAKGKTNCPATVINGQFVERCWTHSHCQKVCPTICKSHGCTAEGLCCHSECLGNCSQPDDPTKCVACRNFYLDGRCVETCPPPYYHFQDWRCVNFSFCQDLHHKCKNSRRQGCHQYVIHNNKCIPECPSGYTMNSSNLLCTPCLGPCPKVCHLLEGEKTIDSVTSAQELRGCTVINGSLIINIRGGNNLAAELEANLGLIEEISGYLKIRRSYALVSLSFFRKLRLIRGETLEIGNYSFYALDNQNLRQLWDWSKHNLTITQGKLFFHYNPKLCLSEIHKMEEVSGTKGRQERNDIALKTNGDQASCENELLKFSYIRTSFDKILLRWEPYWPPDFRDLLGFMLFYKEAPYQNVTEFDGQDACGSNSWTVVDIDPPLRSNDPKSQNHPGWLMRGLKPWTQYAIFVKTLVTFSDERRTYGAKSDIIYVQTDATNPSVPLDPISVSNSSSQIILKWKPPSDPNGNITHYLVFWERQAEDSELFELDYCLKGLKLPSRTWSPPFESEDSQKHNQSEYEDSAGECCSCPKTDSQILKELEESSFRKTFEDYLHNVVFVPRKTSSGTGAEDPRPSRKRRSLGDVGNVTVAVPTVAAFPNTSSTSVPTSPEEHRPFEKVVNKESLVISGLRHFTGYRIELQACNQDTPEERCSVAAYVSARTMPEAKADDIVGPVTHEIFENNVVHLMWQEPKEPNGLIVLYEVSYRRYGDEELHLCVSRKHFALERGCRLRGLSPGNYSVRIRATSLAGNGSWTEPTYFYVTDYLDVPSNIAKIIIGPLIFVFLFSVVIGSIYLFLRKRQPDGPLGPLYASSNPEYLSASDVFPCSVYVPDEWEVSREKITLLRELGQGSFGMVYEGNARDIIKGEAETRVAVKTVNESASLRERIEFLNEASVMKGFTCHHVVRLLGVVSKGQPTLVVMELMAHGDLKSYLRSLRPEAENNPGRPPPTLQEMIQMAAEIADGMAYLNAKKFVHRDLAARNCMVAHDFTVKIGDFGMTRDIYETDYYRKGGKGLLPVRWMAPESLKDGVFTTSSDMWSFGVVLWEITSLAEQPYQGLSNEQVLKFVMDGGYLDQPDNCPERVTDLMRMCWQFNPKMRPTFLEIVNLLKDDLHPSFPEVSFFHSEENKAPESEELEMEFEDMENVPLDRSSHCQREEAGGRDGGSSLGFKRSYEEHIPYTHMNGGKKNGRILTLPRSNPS

## CC(C)(C)C(=O)N1N=CC[C@H]1c1ccccc1 [GSK′963]
[1]; [13]
  remaining activity at 10 µM: 92.9%
[1]; [14]
  remaining activity at 10 µM: 91.2%
[1]; [15]
  remaining activity at 10 µM: 94.6%
[2]; [13]
  remaining activity at 10 µM: 102%
[2]; [14]
  remaining activity at 10 µM: 101%
[2]; [15]
  remaining activity at 10 µM: 102%
[3]; [13]
  remaining activity at 10 µM: 105%
[3]; [14]
  remaining activity at 10 µM: 104%
[3]; [15]
  remaining activity at 10 µM: 105%
[4]; [13]
  remaining activity at 10 µM: 107%
[4]; [14]
  remaining activity at 10 µM: 105%
[4]; [15]
  remaining activity at 10 µM: 108%
[5]; [13]
  remaining activity at 10 µM: 101%
[5]; [14]
  remaining activity at 10 µM: 101%
[5]; [15]
  remaining activity at 10 µM: 101%
[6]; [13]
  remaining activity at 10 µM: 107%
[6]; [14]
  remaining activity at 10 µM: 106%
[6]; [15]
  remaining activity at 10 µM: 107%
[7]; [13]
  remaining activity at 10 µM: 99.4%
[7]; [14]
  remaining activity at 10 µM: 98.2%
[7]; [15]
  remaining activity at 10 µM: 101%
[8]; [13]
  remaining activity at 10 µM: 100%
[8]; [14]
  remaining activity at 10 µM: 100%
[8]; [15]
  remaining activity at 10 µM: 101%
[9]; [13]
  remaining activity at 10 µM: 101%
[9]; [14]
  remaining activity at 10 µM: 104%
[9]; [15]
  remaining activity at 10 µM: 97.1%
[10]; [13]
  remaining activity at 10 µM: 112%
[10]; [14]
  remaining activity at 10 µM: 111%
[10]; [15]
  remaining activity at 10 µM: 112%
[11]; [13]
  remaining activity at 10 µM: 102%
[11]; [14]
  remaining activity at 10 µM: 103%
[11]; [15]
  remaining activity at 10 µM: 101%
[12]; [13]
  remaining activity at 10 µM: 100%
[12]; [14]
  remaining activity at 10 µM: 102%
[12]; [15]
  remaining activity at 10 µM: 98%
